Read-outs that look alike come from different tables or passages of the source.
Columns and labels:
[1] = target: T1, recombinant human KAT-II (kynurenine aminotransferase II) (Homo sapiens, UniProt Q8N5Z0); assay: Lineweaver-Burk analysis, same fluorescent assay; type: biochemical
T1 construct: gene AADAT; recombinant, purchased from R&D Systems (Bio-Techne)
Description: Lineweaver-Burk analysis, same fluorescent assay on recombinant human KAT-II (kynurenine aminotransferase II) | competitive inhibition constant (Ki) for herbacetin and (-)-Epicatechin was calculated

[2] = target: T1, recombinant human KAT-II (kynurenine aminotransferase II); assay: microplate fluorescent kynurenine aminotransferase assay coupled to glutamate dehydrogenase; type: biochemical

T1 sequence (Q8N5Z0 30-425): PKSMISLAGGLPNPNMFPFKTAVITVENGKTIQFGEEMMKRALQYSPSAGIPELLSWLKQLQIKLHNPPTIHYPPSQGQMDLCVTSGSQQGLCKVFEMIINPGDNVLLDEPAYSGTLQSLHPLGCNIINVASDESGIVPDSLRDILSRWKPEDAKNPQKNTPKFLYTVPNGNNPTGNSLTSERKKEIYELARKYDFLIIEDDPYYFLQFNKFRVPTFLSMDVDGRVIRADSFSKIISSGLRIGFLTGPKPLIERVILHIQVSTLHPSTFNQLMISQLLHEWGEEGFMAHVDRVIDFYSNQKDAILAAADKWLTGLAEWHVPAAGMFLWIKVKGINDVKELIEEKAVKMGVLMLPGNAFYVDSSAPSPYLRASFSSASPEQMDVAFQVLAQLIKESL

Ki [1]	IC50 [2]	IC50 ([2]; 1 mM L-KYN, 50 µM α-ketoglutaric acid, 5 µM PLP, pH 7.5, 30 min pre-incubation at room temperature, irreversible (binds PLP), covalent, non-competitive, error printed as 1.83)	SMILES
9.23 ± 0.39 µM	8.76 ± 0.76 µM		Oc1cc(O)c2c(c1)O[C@H](c1ccc(O)c(O)c1)[C@H](O)C2 [(-)-Epicatechin]
		0.0279 ± 0.00181 µM	N[C@H]1Cc2ccccc2N(O)C1=O [PF-04859989, reference compound]
7.64 ± 0.46 µM	5.98 ± 0.18 µM		O=c1c(O)c(-c2ccc(O)cc2)oc2c(O)c(O)cc(O)c12 [herbacetin]
